The results in this text go back to PubChem BioAssay (NCI).

What all share (experiment): NCI-60 cell line screen, 48 h
For test [1], the system named is HOP-62 NSCLC.
Test [2] has as its system UO-31 renal.
Test [3] has as its system OVCAR-4 ovarian.
Test [4] concerns HT29 colon.
The subject of test [5] is COLO 205 colon.
Test [6] deals with HCT-15 colon.
For test [7], the system named is SK-MEL-2 melanoma.
Test [8] relates to OVCAR-8 ovarian.
For test [9], the system named is NCI/ADR-RES ovarian.

Values after ≈ are worked out from the molar mass of the structure shown.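 Growth conditions: 96-well plates. Treatment: test compound, 48 hours, 5 concentrations. Analysis: linear interpolation between bracketing concentrations; unreached endpoints set to highest concentration. The concentration for 50% growth inhibition is given as GI50. TGI: total growth inhibition.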 Bounds are passed on as bounds.

`[O-][n+]1c2cc(CN3CCOCC3)c(CN3CCOCC3)cc2[n+]([O-])c2c(O)cccc21`: the TGI in test [1] was 15.8 µM; in [2] it was 10.4 µM; in [3], 9.81 µM; in test [4] it was 9.18 µM; in [5] it was 11.1 µM; in test [6], 8.14 µM. The TGI in test [7] came to 12.1 µM; in [8], 7.12 µM.
Turning to `O=C(O)C1CC2CC(=O)C1C2` (stereo not drawn), the TGI in test [1], in [2], in [3], in test [4], in test [5] and in test [7] was more than 100 µM in each case. In [8], the TGI was more than 100 µM.
With `CCCCCCCCCCCCCCCCCc1nnc(N)o1`, the TGI in test [1], in test [2], in [3], in test [4], in test [5] and in [6] was more than 100 µM each time. For the same compound, the TGI in [7] and in [8] was more than 100 µM in each case.
Consider `OC1c2ccccc2C2C(O)c3ccccc3C12` (stereo not drawn), for which the TGI in test [1], in test [2], in test [3], in test [4], in test [5] and in test [6] was more than 100 µM in each case. The TGI in test [7] and in test [8] was more than 100 µM in each case.
Regarding `COC(=O)c1nc(N)nc(C(=O)OC)c1C(=O)c1ccccc1`, the TGI in test [2], in test [4], in test [6], in test [7] and in test [8] was more than 100 µM in each case.
On to `Nc1ccc(C2=Nc3ccccc3SC(c3ccccc3O)C2)cc1` (stereo not drawn), for which the TGI in [1], in test [2], in test [3], in [4], in test [5] and in test [6] was more than 100 µM in each case. Further, the TGI in [7] and in test [8] was more than 100 µM each time.
With `O=C1NN=CN2C(=O)CCC12` (stereo not drawn), the TGI in test [1], in test [2], in test [3], in test [5], in test [6] and in test [7] was more than 100 µM in each case. This compound registered a TGI in test [8] of more than 100 µM.
`O=c1[nH]c2c(c3ccccc13)CCc1ccccc1-2`: the TGI in [2], in test [3], in test [4], in test [5], in [6] and in [7] was more than 100 µM in each case. The compound further returned a TGI in [8] of more than 100 µM.
For the compound `COc1cc(/C=C\c2ccc(Cl)cc2)cc(OC)c1OC`, the TGI in test [1] was more than 100 µM; in [2], more than 43.6 µM; in [3], more than 100 µM; in test [4], 10.2 µM; in [5], more than 36.3 µM; in [6] it was 14.4 µM. In addition, the results for the TGI in [7] and in test [8] were 16.3 µM and more than 100 µM, respectively.
Take `COC(=O)C1=C(c2ccc(Cl)cc2)C(O)N=C(NN)N1` (stereo not drawn): the TGI in test [1], in test [2], in test [3], in test [4], in test [6] and in test [7] was more than 100 µM in each case. The TGI in test [8] was more than 100 µM.
On to `O=C1NN=C(c2ccc([N+](=O)[O-])cc2)C1n1nc(-c2ccccc2)c2ccccc2c1=O` (stereo not drawn), for which the TGI in test [1] was more than 100 µM; in test [2], more than 100 µM; in test [3], more than 100 µM; in test [4], more than 100 µM; in test [5], more than 100 µM; in [6], more than 68.5 µM. Moreover, the TGI in test [7] and in test [8] was more than 100 µM each time.
For the compound `CC1CC(=O)c2c(ccc3c2C(=O)c2cccc(O)c2C3=O)C1` (stereo not drawn), the TGI in [2] is 24.2 µM; in test [3] it was 25.3 µM; in test [4], 18.5 µM; in test [5], 25.2 µM; in [6] it was 22.9 µM; in [7], 22.6 µM. For the same compound, the TGI in test [8] turned out to be 11.1 µM.
Consider `NC(=O)N/N=C(\CCC(=O)N(Cc1ccccc1)Cc1ccccc1)CC(=O)c1ccc(F)cc1`, for which the TGI in test [1], in test [2], in test [3], in [4], in test [5] and in test [6] was more than 100 µM each time. Besides, the TGI in [7] and in test [8] was more than 100 µM in each case.
As to `COc1ccc(C=C2C(=O)NC(=O)NC2=O)cc1OCc1ccccc1`, the GI50 in test [1] is 36.9 µg/mL (≈ 105 µM); in test [2] it was 33 µg/mL (≈ 93.6 µM); in test [3], 35.6 µg/mL (≈ 101 µM); in test [4] it was 31.7 µg/mL (≈ 89.9 µM); in test [6] it was 30.8 µg/mL (≈ 87.5 µM); in [9], 39.4 µg/mL (≈ 112 µM). Further, the GI50 in test [7] is 25.6 µg/mL (≈ 72.6 µM); in test [8] it was 57.3 µg/mL (≈ 163 µM). This compound showed a TGI in test [7] of 79.4 µg/mL.
For the compound `N#CC(C(=O)CCC(=O)Nc1ccc(Cl)c(Cl)c1)c1ccc(Cl)cc1` (stereo not drawn), the TGI in test [1], in test [2], in test [3], in [4], in test [6] and in [7] was more than 100 µM in each case. In [8], this compound yielded a TGI of more than 100 µM.
Regarding `CCOC(=O)c1cn(CC)c2cc3c(cc2c1=O)SCS3`, the TGI in [1], in test [2], in test [3], in [4], in test [5] and in [6] was more than 100 µM in each case. Also, the TGI in test [7] and in test [8] was more than 100 µM in each case.
With `CC(=O)O[C@H]1CC[C@@]2(C)C(=C/C(=N\[N+](=O)[O-])[C@H]3C4CCC([C@H](C)CCCC(C)C)[C@@]4(C)CCC32)C1` (stereo partly drawn), the TGI in [1], in test [2], in test [3], in test [4], in test [5] and in test [6] was more than 100 µM in each case. The TGI in test [7] and in [8] was more than 100 µM each time.
